Measurements: patent US9958439B2, “Carbohydrate detection” (RICHTER LIFE SCIENCE DEVELOPMENT AB, priority 2012, dated 2018)
Where two headings read alike, the source gives them in different places.

Experiments:
[1] = for RFU change (Correlation analysis): probe-specific excitation λ, emission 545 nm
Summary of the method: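 Each LCO probe at 3 μM was added to two-fold serial dilutions of carbohydrate in dH2O (10–0.039 mg/ml for β-1,3-glucan, cellulose, chitin; 5–0.019 mg/ml for the others), run in triplicate. Excitation spectra were scanned 300–500 nm with emission at 545 nm. Detection was a reproducible λmax and/or RFU shift versus negative control, with linear regression of RFU against concentration.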

[2] = Summary of the method: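 LCO probes at 3 μM mixed with serial two-fold carbohydrate dilutions in water (10–0.039 or 5–0.019 mg/ml), run in triplicate. Excitation scanned 300–500 nm with emission at 545 nm; detection based on reproducible λmax or RFU shift against the no-carbohydrate control, with linear regression of RFU on concentration.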
[3] = for RFU change (Correlation analysis): probe-specific excitation λ, emission 545 nm; for Gradient Parameters (gradient of regression line) / Linear relationship / Quality of Gradient: linear regression
Summary of the method: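 LCO probes at 3 μM mixed with serial twofold carbohydrate dilutions in dH2O (10–0.039 or 5–0.019 mg/ml, depending on carbohydrate). Excitation scanned 300–500 nm, emission read at 545 nm; detection defined as reproducible shift in λmax and/or RFU relative to negative control, with linear regression of RFU against concentration.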

[4] = remark: listed apart in the source
Summary of the method: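 3 μM of each LCO probe was added to serial two-fold carbohydrate dilutions in water (10–0.039 or 5–0.019 mg/ml). Excitation spectra were scanned 300–500 nm with emission at 545 nm, in triplicate. Detection was defined as a reproducible shift in λmax and/or RFU versus negative control, with linear regression of RFU against concentration.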

[5] = for RFU change (Correlation analysis): probe-specific excitation λ, emission 545 nm; remark: listed apart in the source
Summary of the method: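 LCO probes at 3 μM mixed with serial two-fold dilutions of carbohydrate in dH2O (10–0.039 or 5–0.019 mg/ml, depending on carbohydrate), in triplicate. Excitation scanned 300–500 nm or fixed per probe (λmax or lowest background), emission at 545 nm. Detection taken as reproducible λmax/RFU shift vs no-carbohydrate control; RFU regressed linearly on concentration.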

[6] = remark: listed apart in the source
Summary of the method: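 LCO probes (3 μM) were added to serial two-fold dilutions of carbohydrate suspensions in dH2O, with excitation scanned 300–500 nm and emission at 545 nm. Detection was a reproducible λmax and/or RFU change versus no-carbohydrate control. RFU was regressed linearly against concentration at the λmax or the lowest-background excitation.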

[7] = Chitin 10-[…], 3 μM probe, spectral analysis, Excitation 300-500, Emission 545
[8] = cellulose concentration vs RFU, linear regression
[9] = chitin concentration vs RFU, linear regression
[10] = β-1,3-glucan concentration vs RFU, linear regression
[11] = glucose concentration vs RFU, linear regression
[12] = Glycogen 5-0.019 mg/ml, 3 μM probe, spectral analysis, Excitation 300-500, Emission 545
[13] = Chondroitin Sulfate A 5-0.019 mg/ml, 3 μM probe, spectral analysis, Excitation 300-500, Emission 545
[14] = Chondroitin Sulfate A concentration vs RFU, linear regression
[15] = Cellulobiose 5-0.019 mg/ml, 3 μM probe, spectral analysis, Excitation 300-500, Emission 545
[16] = amylose concentration vs RFU, linear regression
[17] = cellulobiose concentration vs RFU, linear regression
[18] = sodium alginate concentration vs RFU, linear regression

## O=C(Cc1cc(-c2cccs2)sc1-c1ccc(-c2sc(-c3cccs3)cc2CC(=O)N[C@@H](Cc2ccc([O-])cc2)C(=O)[O-])s1)N[C@@H](Cc1ccc([O-])cc1)C(=O)[O-].[Na+].[Na+].[Na+].[Na+] [pHTA-Tyr, penta Hydrogen Thiophene Acetic acid Tyrosine]
[1]; Cellulose 10-[…], 3 μM probe
  RFU change (Correlation analysis): Unclear
[1]; Cellulose 10-[…], 3 μM probe, spectral analysis, Excitation 300-500, Emission 545
  RFU change (Signal deviation with increasing [Carbohydrate]): Unclear
[1]; Chitin 10-[…], 3 μM probe
  RFU change (Correlation analysis): Increases
[1]; [7]
  RFU change (Signal deviation with increasing [Carbohydrate]): Increases
  λmax change: Redshift
[1]; Chitin, conclusion from change in signal magnitude and/or shift in λmax
  carbohydrate can be detected and/or differentiated by the LCO: can be detected and/or differentiated
[1]; [8]
  Gradient Parameters (gradient of regression line): −51.4 ± 45.0
  Quality of Gradient: Horizontal
[1]; [9]
  Gradient Parameters (gradient of regression line): 972.3 ± 109.7
  Linear relationship: Significant
  Quality of Gradient: Positive
[1]; to cellulose
  Sensitivity: No
[1]; to chitin
  Sensitivity: Yes
[1]; to β-1,3-glucan
  Sensitivity: No
[1]; β-1,3-glucan 10-[…], 3 μM probe
  RFU change (Correlation analysis): Decrease
[1]; β-1,3-glucan 10-[…], 3 μM probe, spectral analysis, Excitation 300-500, Emission 545
  RFU change (Signal deviation with increasing [Carbohydrate]): Decrease
[1]; [10]
  Gradient Parameters (gradient of regression line): −53.2 ± 47.5
  Quality of Gradient: Horizontal
[2]; Glucose 5-0.019 mg/ml, 3 μM probe, probe-specific excitation λ, emission 545 nm
  RFU change (Correlation analysis): Increases
[2]; Glucose 5-0.019 mg/ml, 3 μM probe, spectral analysis, Excitation 300-500, Emission 545
  RFU change (Signal deviation with increasing [Carbohydrate]): Increases
[2]; Glucose, conclusion from change in signal magnitude and/or shift in λmax
  carbohydrate can be detected and/or differentiated by the LCO: can be detected and/or differentiated
[2]; [11]
  Gradient Parameters (gradient of regression line): 799.4 ± 95.1
  Linear relationship: Significant
  Quality of Gradient: Positive
[2]; to glucose
  Sensitivity: Yes
[3]; Glycogen 5-0.019 mg/ml, 3 μM probe
  RFU change (Correlation analysis): Decreases
[3]; [12]
  RFU change (Signal deviation with increasing [Carbohydrate]): Decreases
  λmax change: Redshift
[3]; Glycogen, conclusion from change in signal magnitude and/or shift in λmax
  carbohydrate can be detected and/or differentiated by the LCO: can be detected and/or differentiated
[3]; Heparin 5-0.019 mg/ml, 3 μM probe
  RFU change (Correlation analysis): Increases
[3]; Heparin 5-0.019 mg/ml, 3 μM probe, spectral analysis, Excitation 300-500, Emission 545
  RFU change (Signal deviation with increasing [Carbohydrate]): Increases
[3]; glycogen concentration vs RFU
  Gradient Parameters (gradient of regression line): −2062 ± 216.6
  Linear relationship: Significant
  Quality of Gradient: Negative
[3]; heparin concentration vs RFU
  Gradient Parameters (gradient of regression line): 74.5 ± 80.7
  Linear relationship: Not Significant
  Quality of Gradient: Horizontal
[3]; to glycogen
  Sensitivity: Yes
[3]; to heparin
  Sensitivity: No
[4]; Chondroitin Sulfate A 5-0.019 mg/ml, 3 μM probe, probe-specific excitation λ, emission 545 nm
  RFU change (Correlation analysis): Increases
[4]; [13]
  RFU change (Signal deviation with increasing [Carbohydrate]): Increases
  λmax change: No change
[4]; [14]
  Gradient Parameters (gradient of regression line): 163.3 ± 61.5
  Linear relationship: Significant
  Quality of Gradient: Positive
[4]; Chondroitin sulfate A, conclusion from change in signal magnitude and/or shift in λmax
  carbohydrate can be detected and/or differentiated by the LCO: can be detected and/or differentiated
[4]; to Chondroitin Sulfate A
  Sensitivity: Yes
[5]; Amylose 5-0.019 mg/ml, 3 μM probe
  RFU change (Correlation analysis): Unclear
[5]; Amylose 5-0.019 mg/ml, 3 μM probe, spectral analysis, Excitation 300-500, Emission 545
  RFU change (Signal deviation with increasing [Carbohydrate]): Unclear
[5]; Cellulobiose 5-0.019 mg/ml, 3 μM probe
  RFU change (Correlation analysis): Increases
[5]; [15]
  RFU change (Signal deviation with increasing [Carbohydrate]): Increases
  λmax change: No change
[5]; Cellulobiose, conclusion from change in signal magnitude and/or shift in λmax
  carbohydrate can be detected and/or differentiated by the LCO: can be detected and/or differentiated
[5]; [16]
  Gradient Parameters (gradient of regression line): −133.1 ± 128.5
  Quality of Gradient: Horizontal
[5]; [17]
  Gradient Parameters (gradient of regression line): 56.7 ± 16
  Linear relationship: Significant
  Quality of Gradient: Positive
[5]; to amylose
  Sensitivity: No
[5]; to cellulobiose
  Sensitivity: Yes
[6]; Sodium alginate 5-0.019 mg/ml, 3 μM probe, probe-specific excitation λ, emission 545 nm
  RFU change (Correlation analysis): Unclear
[6]; Sodium alginate 5-0.019 mg/ml, 3 μM probe, spectral analysis, Excitation 300-500, Emission 545
  RFU change (Signal deviation with increasing [Carbohydrate]): Increases
[6]; [18]
  Gradient Parameters (gradient of regression line): 30.9 ± 175.5
  Quality of Gradient: Horizontal
[6]; to sodium alginate
  Sensitivity: No
